Source: US20100068150A1, “Selective Caspase Inhibitors” (The Board of Trustees of the Leland Stanford Junior …, priority 2006, published 2010)

Key:
Format in all cases: biochemical
Caspase-8 = Caspase-8 (Homo sapiens, UniProt Q14790); assay: Kinetic compound screening, progress curve method, caspase-8; settings: for Ki(app) Caspase-8: Table III, Ki(app) = Kass or Kobs/I, 10 nM active caspase-8; for Caspase-8 Ki (app): Table IV, NI = no inhibition at concentrations tested
From the text: (§1) Table III below presents Ki(app) values for select AB compounds. Ki(app) values (also called Kass or Kobs/I) represent the speed of inhibitor binding to a target enzyme. Units are [M^−1s^−1]. NI indicates no inhibition at concentrations tested. Parent compounds AB09, ABo8, and AB07 that include the optimal substrate specificity sequences for caspases-3, […] as determined by Thornberry and colleagues (Thornberry et al., 19970 are included between double lines.
(§2) The inhibitors AB07 (NP-LEHD-AOMK, caspase-9), AB08 (NP-LETD-AOMK, caspase-8), and AB09 (NP-DEVD-AOMK, caspase-3) were synthesized and kinetic inhibition constants (Kiapp) were obtained for all compounds for caspases 3, 7, 8 and 9 using the progress curve method for pseudo-first order reactions kinetics (Salvesen, 1989) (structures shown in Table I). […] Ki(app) values (also called Kass or Kobs/I) represent the speed of inhibitor binding to a target enzyme. Units are [M-1s-1]. NI indicates no inhibition at concentrations tested, ND indicates data not determined, SD indicates standard deviation.
(§3) Compound screening was completed using the progress curve method as described (Salvesen, 1989). All screening was carried out in caspase reaction buffer. The caspase-9 specific compounds AB38, 40, 41 and 42 were screened in caspase reaction buffer and in caspase buffer with 1M sodium citrate instead of sucrose as described (Pop, 2006) The concentrations of active caspases used is as follows: 5 nM active caspase-3, 5 nM active caspase-7, 10 nM active caspase-8, and 50 nM active caspase-9. To ensure full activation, caspases 3/7, 8 and 9 were preincubated at 37° C. for 5, 10, or 40 minutes respectively before kinetic measurements were made.

Caspase-7 = target: T1, Caspase-7 (Homo sapiens, UniProt P55210); assay: Kinetic compound screening, progress curve method, caspase-7; settings: for Ki(app) Caspase-7: Table III, Ki(app) = Kass or Kobs/I, 5 nM active caspase-7; for Caspase-7 Ki (app): Table IV
T1 sequence (P55210 1-303): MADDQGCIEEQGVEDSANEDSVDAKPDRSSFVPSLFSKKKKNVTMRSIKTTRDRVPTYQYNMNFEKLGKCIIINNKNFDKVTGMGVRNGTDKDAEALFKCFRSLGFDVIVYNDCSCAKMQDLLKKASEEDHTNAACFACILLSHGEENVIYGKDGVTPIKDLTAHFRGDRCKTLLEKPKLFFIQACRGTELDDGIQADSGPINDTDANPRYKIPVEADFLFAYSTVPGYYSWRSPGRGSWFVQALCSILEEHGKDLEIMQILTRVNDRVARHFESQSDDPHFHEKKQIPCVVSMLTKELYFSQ
From the text: as §1, §2, §3

Caspase-9 = target: T2, Caspase-9 (Homo sapiens, UniProt P55211); assay: Kinetic compound screening, progress curve method, caspase-9; settings: for Ki(app) Caspase-9: Table III, Ki(app) = Kass or Kobs/I, 50 nM active caspase-9; for Ki(app) Caspase-9 / Caspase-9 Ki (app): NI = no inhibition at concentrations tested; for Caspase-9 Ki (app): Table IV
T2 sequence (P55211 1-416): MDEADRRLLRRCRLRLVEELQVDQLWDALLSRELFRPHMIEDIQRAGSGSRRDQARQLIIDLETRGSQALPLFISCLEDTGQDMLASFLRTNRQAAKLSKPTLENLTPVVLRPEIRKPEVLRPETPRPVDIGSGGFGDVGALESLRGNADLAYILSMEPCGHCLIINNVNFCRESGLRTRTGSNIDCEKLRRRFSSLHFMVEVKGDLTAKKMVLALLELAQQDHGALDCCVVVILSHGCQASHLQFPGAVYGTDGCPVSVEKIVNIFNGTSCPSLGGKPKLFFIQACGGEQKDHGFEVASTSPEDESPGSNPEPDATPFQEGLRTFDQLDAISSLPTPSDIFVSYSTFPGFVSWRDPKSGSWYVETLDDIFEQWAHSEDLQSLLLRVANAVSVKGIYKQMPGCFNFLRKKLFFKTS
From the text: as §1, §2, §3

Caspase-3 = target: T3, Caspase-3 (Homo sapiens, UniProt P42574); assay: Kinetic compound screening, progress curve method, caspase-3; settings: for Ki(app) Caspase-3: Table III, Ki(app) = Kass or Kobs/I, 5 nM active caspase-3; for Caspase-3 Ki(app): Table IV
T3 sequence (P42574 29-175 limits assumed): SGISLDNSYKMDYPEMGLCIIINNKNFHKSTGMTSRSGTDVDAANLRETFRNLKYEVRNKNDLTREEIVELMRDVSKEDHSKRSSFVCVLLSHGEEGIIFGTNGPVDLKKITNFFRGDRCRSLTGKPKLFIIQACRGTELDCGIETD
T3 sequence (P42574 176-277 limits assumed): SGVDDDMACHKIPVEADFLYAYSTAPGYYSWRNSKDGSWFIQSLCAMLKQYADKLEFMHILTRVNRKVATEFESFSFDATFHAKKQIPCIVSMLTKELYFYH
From the text: as §1, §2, §3

Chain of Caspase-8 (Q14790 217-479): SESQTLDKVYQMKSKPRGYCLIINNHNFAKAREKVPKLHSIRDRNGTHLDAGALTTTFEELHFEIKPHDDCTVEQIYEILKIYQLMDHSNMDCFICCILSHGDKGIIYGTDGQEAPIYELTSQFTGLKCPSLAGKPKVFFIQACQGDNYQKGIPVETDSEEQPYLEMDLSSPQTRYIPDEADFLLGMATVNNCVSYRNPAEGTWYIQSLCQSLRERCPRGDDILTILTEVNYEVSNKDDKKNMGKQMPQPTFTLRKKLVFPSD

| Compound | inhibition of caspase-8, in words (Caspase-8) | Ki(app) Caspase-8 (Caspase-8) | Caspase-8 Ki (app) (Caspase-8) | Ki(app) Caspase-7 (Caspase-7) | Caspase-7 Ki (app) (Caspase-7) | Ki(app) Caspase-9 (Caspase-9) | Caspase-9 Ki (app) (Caspase-9) | Ki(app) Caspase-3 (Caspase-3) | Caspase-3 Ki(app) (Caspase-3) | activity for caspase-9, in words (Caspase-9) |
| --- | --- | --- | --- | --- | --- | --- | --- | --- | --- | --- |
| Cc1cccc(C)c1C(=O)OCC(=O)[C@H](CC(=O)O)NC(=O)[C@H](Cc1cc[nH]c1)NC(=O)[C@H](CCC(=O)O)NC(=O)[C@H](CC(C)C)NC(=O)Cc1ccc(O)c([N+](=O)[O-])c1 [AB07, Np-L-E- H-D-DMBA] | more rapid inhibition of caspase-8 | 506,912 M^−1s^−1 | 506,912 M-1s-1 | 10,447 M^−1s^−1 | 10,447 M-1s-1 | 20,141 M^−1s^−1 | 41 M⁻¹ s⁻¹ | 75,295 M^−1s^−1 | 75,295 M-1s-1 |  |
| Cc1cccc(C)c1C(=O)OCC(=O)[C@H](CC(=O)O)NC(=O)[C@@H](NC(=O)[C@H](CCC(=O)O)NC(=O)[C@H](CC(C)C)NC(=O)Cc1ccc(O)c([N+](=O)[O-])c1)C(C)O (stereo partly drawn) [AB08, Np-L-E- T-D-DMBA] |  | 599,788 M^−1s^−1 | 599,788 M-1s-1 | 19,424 M^−1s^−1 | 19,424 M-1s-1 | <5,000 M^−1s^−1 | <5,000 M-1s-1 | 127,835 M^−1s^−1 | 127,835 M-1s-1 |  |
| Cc1cccc(C)c1C(=O)OCC(=O)[C@H](CC(=O)O)NC(=O)C1CCCN1C(=O)[C@@H](CCC(=O)O)NC(=O)[C@H](CC(=O)O)NC(=O)Cc1ccc(O)c([N+](=O)[O-])c1 (stereo partly drawn) [AB11, NP-D-E- P-D-DMBA] |  | 580,547 M^−1s^−1 | 580,547 M-1s-1 | 199,341 M^−1s^−1 | 199,341 M-1s-1 | 47,362 M^−1s^−1 | 47,362 M-1s-1 | 2,482,333 M^−1s^−1 | 2,482,333 M-1s-1 |  |
| Cc1ccc(C[C@H](NC(=O)[C@H](CC(=O)O)NC(=O)Cc2ccc(O)c([N+](=O)[O-])c2)C(=O)N[C@H](C(=O)N[C@@H](CC(=O)O)C(=O)COC(=O)c2c(C)cccc2C)C(C)C)cc1 [AB12, Np-D-E-29-V-D-DMBA] |  | 271,626 M^−1s^−1 | 271,626 M-1s-1 | 783,840 M^−1s^−1 | 783,840 M-1s-1 |  |  | 5,652,900 M^−1s^−1 | 5,652,900 M-1s-1 |  |
| Cc1cccc(C)c1C(=O)OCC(=O)[C@H](CC(=O)O)NC(=O)[C@@H](NC(=O)[C@@H](NC(=O)[C@H](CC(=O)O)NC(=O)Cc1ccc(O)c([N+](=O)[O-])c1)c1ccccc1)C(C)C [AB13, Np-D-E-34-V-D-DMBA] |  | <5,000 M^−1s^−1 | <5,000 M-1s-1 | 279,519 M^−1s^−1 | 279,519 M-1s-1 |  |  | 3,416,050 M^−1s^−1 | 3,416,050 M-1s-1 |  |
| Cc1cccc(C)c1C(=O)OCC(=O)[C@H](CC(=O)O)NC(=O)[C@@H](NC(=O)[C@@H](NC(=O)[C@H](Cc1ccc2ccccc2c1)NC(=O)Cc1ccc(O)c([N+](=O)[O-])c1)c1ccccc1)C(C)C [AB15, Np-26-34-V-D-DMBA] |  |  |  |  |  |  |  |  | 133,705 M-1s-1 |  |
| Cc1cccc(C)c1C(=O)OCC(=O)[C@H](CC(=O)O)NC(=O)[C@@H](NC(=O)[C@H](Cc1ccccn1)NC(=O)[C@H](Cc1ccc2ccccc2c1)NC(=O)Cc1ccc(O)c([N+](=O)[O-])c1)C(C)C [AB16, Np-26-3-V-D-DMBA] |  | 121,650 M^−1s^−1 | 121,650 M-1s-1 | 24,185 M^−1s^−1 | 24,185 M-1s-1 |  |  | 484,495 M^−1s^−1 | 484,495 M-1s-1 |  |
| Cc1cccc(C)c1C(=O)OCC(=O)[C@H](CC(=O)O)NC(=O)[C@@H](NC(=O)C(CCC(=O)O)NC(=O)[C@H](Cc1ccc2ccccc2c1)NC(=O)Cc1ccc(O)c([N+](=O)[O-])c1)C(C)C (stereo partly drawn) [AB17, Np-26-E-V-D-DMBA] |  | 126,323 M^−1s^−1 | 126,323 M-1s-1 | 448,155 M^−1s^−1 | 448,155 M-1s-1 |  |  | 781,733 M^−1s^−1 | 781,733 M-1s-1 |  |
| Cc1cccc(C)c1C(=O)OCC(=O)[C@H](CC(=O)O)NC(=O)[C@@H](NC(=O)[C@H](CCC(=O)O)NC(=O)[C@H](Cc1ccc(I)cc1)NC(=O)Cc1ccc(O)c([N+](=O)[O-])c1)C(C)O (stereo partly drawn) [AB18, NP-31-E-T-D-DMBA] |  | 572,012 M^−1s^−1 | 572,012 M-1s-1 | 234,945 M^−1s^−1 | 234,945 M-1s-1 | 12,320 M^−1s^−1 | 12,320 M-1s-1 | 216,040 M^−1s^−1 | 216,040 M-1s-1 |  |
| Cc1cccc(C)c1C(=O)OCC(=O)[C@H](CC(=O)O)NC(=O)[C@@H](NC(=O)[C@H](CCC(=O)O)NC(=O)[C@H](Cc1ccc(I)cc1)NC(=O)Cc1ccc(O)c([N+](=O)[O-])c1)C1Cc2ccccc2C1 [AB19, NP-31-E-23-D-DMBA] | retained relatively good potency for caspase-8 | 396,225 M^−1s^−1 | 396,225 M-1s-1 | 42,994 M^−1s^−1 | 42,994 M-1s-1 |  |  | 179,086 M^−1s^−1 | 179,086 M-1s-1 | no measurable activity for caspase-9 |
| Cc1ccc(C[C@H](NC(=O)Cc2ccc(O)c([N+](=O)[O-])c2)C(=O)N[C@@H](CCC(=O)O)C(=O)N[C@H](C(=O)N[C@@H](CC(=O)O)C(=O)COC(=O)c2c(C)cccc2C)C(C)O)cc1 (stereo partly drawn) [AB20, Np-29-E-T-D-DMBA] | highest kinetic inhibition constants for caspase-8 that we have measured so far | 1,071,401 M^−1s^−1 | 1,071,401 M-1s-1 | 181,332 M^−1s^−1 | 181,332 M-1s-1 | 41,300 M^−1s^−1 | 41,300 M-1s-1 | 570,900 M^−1s^−1 | 570,900 M-1s-1 |  |
| Cc1cccc(C)c1C(=O)OCC(=O)[C@H](CC(=O)O)NC(=O)C1(NC(=O)[C@H](CCC(=O)O)NC(=O)[C@H](CC(=O)O)NC(=O)Cc2ccc(O)c([N+](=O)[O-])c2)CC1 [AB29, Np-D-E-11-D-DMBA] |  |  | 90,503 M-1s-1 |  |  |  |  |  | 341,429 M-1s-1 |  |
| Cc1ccc(C[C@H](NC(=O)[C@H](CC(=O)O)NC(=O)Cc2ccc(O)c([N+](=O)[O-])c2)C(=O)NC2(C(=O)N[C@@H](CC(=O)O)C(=O)COC(=O)c3c(C)cccc3C)CC2)cc1 [AB30, Np-D-30-11-D-DMBA] |  |  |  |  |  |  |  |  | 448,179 M-1s-1 |  |
| Cc1ccc(C[C@@H](NC(=O)[C@H](CC(=O)O)NC(=O)Cc2ccc(O)c([N+](=O)[O-])c2)C(=O)N[C@H](C(=O)N[C@@H](CC(=O)O)C(=O)COC(=O)c2c(C)cccc2C)C(C)C)cc1 [AB31, Np-D-30-V-D-DMBA] |  |  |  |  |  |  |  |  | 64,873 M-1s-1 |  |
